Measured values as given in ChEMBL document CHEMBL1134158, “Antimycobacterial in vitro activity of cobalt(II) isonicotinoylhydrazone complexes. Part 10” (2001).
Values after ≈ are worked out from the molar mass of the structure shown.

Tested on: Mycobacterium tuberculosis
Experiment: In vitro anti-mycobacterial activity against Mycobacterium tuberculosis H37Rv
Format: functional

SMILES | MIC
CO[C@H]1/C=C/O[C@@]2(C)Oc3c(C)c(O)c4c(O)c(c(/C=N/N5CCN(C)CC5)c(O)c4c3C2=O)NC(=O)/C(C)=C\C=C\[C@H](C)[C@H](O)[C@@H](C)[C@@H](O)[C@@H](C)[C@H](OC(C)=O)[C@@H]1C [RIFAMPIN] | 0.06 µg/mL (≈ 0.0729 µM)
NNC(=O)c1ccncc1 [ISONIAZID] | 0.025 µg/mL (≈ 0.182 µM)
